Source: US7560279B2, “Method of proliferating human hepatocytes and method for obtaining human hepatocytes” (Hiroshima Industrial Promotion Organization, priority 2002, dated 2009)

Key:
[1] = test system: human complement produced by human hepatocytes; assay: Complement inhibitor given to human-hepatocyte chimeric mice: survival; assay type: in vivo, mouse; conditions: 200 μl of 2 mg/ml, every 2 days to twice a day; human albumin in blood exceeded 3 mg/ml
Experimental: Also, human hepatocytes in the mouse liver tissue were stained immunologically using an anti-human complement C3 antibody, and presence of a complement C3 in human hepatocytes was confirmed. Therefore, 200 μl of a complement inhibitor (Futhan®) with concentration of 2 mg/ml was administered into the mouse with increased human albumin concentration. Administration frequency was started from once per 2 days. Change in body weight was checked every day, and administration frequency or dose was increased when decrease in body weight was observed (FIG. 3). As the results, the mice with human albumin concentration in blood over 2 mg/ml received the complement inhibitor (Futhan®) every 2 days, and those over 4 mg/ml received every day, and further, those over 6 mg/ml received twice a day (FIG. 3).

human complement (hC3a) = assay: Human complement (hC3a) in blood of chimeric mice by ELISA; assay type: in vivo, mouse; conditions: administered vs non-administered chimeric mice
Experimental: Further, concentration of the human complement (hC3a) in blood of chimeric mice administered or non-administered with the complement inhibitor (Futhan®) was measured by ELISA method. In consequence, it was confirmed that hC3a concentration was lower in chimeric mice administered with the complement inhibitor compared with non-administered mice (FIG. 4).

CYP2C9 = test system: T1, CYP2C9; assay: Diclofenac 4-hydroxylation activity in mouse liver microsomes; assay type: in vivo; conditions: liver microsomes of uPA(-/-)/SCID mouse
T1 construct: to check activity of CYP2C9 in the microsomal fraction sampled from a mouse; from tissue; host or cells: liver microsomal fraction of human-hepatocyte-transplanted chimeric mice (uPA/SCID); donor (human) microsome as comparison
Experimental: Further, to check activity of CYP2C9 in the microsomal fraction sampled from a mouse, diclofenac 4-hydroxylation activity was measured by adding diclofenac to the microsome. In consequence, diclofenac 4-hydroxylation activity was little detected in the uPA(−/−)/SCID mouse, and induction of activity by administration of a complement inhibitor was not observed also. […] In a chimeric mouse with 89% of replacement ratio, diclofenac 4-hydroxylation activity was confirmed higher than that of donor (human) microsome (FIG. 9).

[2] = test system: normalized mouse hepatocytes; assay: Growth inhibition of normalized mouse hepatocytes in uPA-Tg/SCID mice; assay type: in vivo; conditions: 30 or 60 mg/kg intraperitoneally
Experimental: Retrorsine was inoculated intraperitoneally in the amount of 30 or 60 mg/kg into a uPA-Tg(+/−)/SCID mouse and a uPA-Tg(+/+)/SCID mouse. As the result, number of colonies of normalized hepatocytes caused by deletion of introduced uPA gene (uPA-Tg(−/−)/SCID) was reduced in the uPA-Tg(+/−)/SCID mouse (FIG. 12).

human hepatocytes = assay: Human albumin in blood of chimeric mice (ELISA); assay type: in vivo; conditions: 60 mg/kg intraperitoneally before transplantation; compared with chimeric uPA-Tg(+/+)/SCID mouse
Experimental: From 1 week after transplantation of human hepatocytes, 10 μl blood samples were taken from the tail of a mouse once or twice per a week, and concentration of human albumin was measured using Quantitative ELISA immunoassay (Bethyl Laboratories Inc.).
Then, the uPA-Tg(+/−)/SCID and the uPA-Tg(+/+)/SCID mice, which were inoculated with 60 mg/kg of retrorsine intraperitoneally, were transplanted with human hepatocytes similarly as in Example 1 to prepare chimeric mice.
As to one chimeric mouse prepared in Example 1, at 100 days after transplantation of human hepatocytes, an anti-mouse Fas antibody which leads mouse hepatocytes to apoptosis by reaction with a Fas antigen thereof was inoculated (0.2 μg/g body weight) into the abdominal cavity of said chimeric mouse twice at the interval of 1 week.

T1 sequence (P11712 whole entry): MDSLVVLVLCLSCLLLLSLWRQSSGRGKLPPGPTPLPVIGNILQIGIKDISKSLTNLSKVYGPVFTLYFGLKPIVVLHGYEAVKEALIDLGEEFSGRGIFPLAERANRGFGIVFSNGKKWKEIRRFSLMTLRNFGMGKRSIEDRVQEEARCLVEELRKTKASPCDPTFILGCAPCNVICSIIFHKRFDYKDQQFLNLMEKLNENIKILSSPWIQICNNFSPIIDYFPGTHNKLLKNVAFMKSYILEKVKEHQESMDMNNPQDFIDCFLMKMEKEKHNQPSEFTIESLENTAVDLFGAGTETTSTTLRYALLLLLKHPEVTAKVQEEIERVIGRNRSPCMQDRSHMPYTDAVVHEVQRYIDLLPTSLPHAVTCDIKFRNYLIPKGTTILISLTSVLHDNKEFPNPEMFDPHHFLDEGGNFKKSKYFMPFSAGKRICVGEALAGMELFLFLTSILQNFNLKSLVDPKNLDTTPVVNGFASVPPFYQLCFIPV

Molecule | survival of chimeric mouse [1] | hC3a concentration in blood (human complement (hC3a)) | induction of diclofenac 4-hydroxylation activity (CYP2C9) | number of colonies of normalized hepatocytes caused by deletion of introduced uPA gene [2] | human albumin concentration in blood of chimeric uPA-Tg(+/-)/SCID mouse (human hepatocytes)
N=C(N)c1ccc2cc(OC(=O)c3ccc(N=C(N)N)cc3)ccc2c1 [Futhan, nafamostat mesilate] | could live for long period | lower | not observed | – | –
retrorsine | – | – | – | reduced | increased to the same level
